# Results published in patent US5968737A, “Method of identifying inhibitors of glutathione S-transferase (GST) gene expression” (The University of Mississippi, priority 1996, dated 1999).
# Read-outs that look alike come from different tables or passages of the source.
# What was measured:
# [1] = target: T1, human GST-π variant GSTP1b-1b, recombinant, encoded by hGSTP1*B (Ile104→Val104; SEQ ID NO:5 and SEQ ID NO:6) (Homo sapiens, UniProt P09211, I105V); assay: Enzyme kinetics: catalysis of the conjugation of GSH with CDNB by purified recombinant GST-π protein; assay type: biochemical; conditions: 25° C., 0.1M K-phosphate buffer pH 8.3, 2.5 mM GSH
# T1 construct: made in house; host or cells: E. coli (XL1 Blue, pBK-CMV vector)
# T1 sequence (P09211 2-210 I105V): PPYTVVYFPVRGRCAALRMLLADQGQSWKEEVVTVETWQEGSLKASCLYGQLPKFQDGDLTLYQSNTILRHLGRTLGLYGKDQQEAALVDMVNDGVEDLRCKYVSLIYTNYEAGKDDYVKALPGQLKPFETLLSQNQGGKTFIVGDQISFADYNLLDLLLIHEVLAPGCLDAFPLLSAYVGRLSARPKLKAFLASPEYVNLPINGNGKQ
# Experimental: (§1) FIGS. 8A-C. Lineweaver-Burke plots for the catalysis of the conjugation of GSH with CDNB by GSH-affinity chromatography purified recombinant GSTP1a-1a (FIG. 8A), GSTP1b-1b (FIG. 8B) and GSTP1c-1c (FIG. 8C). Reaction rates were determined with 2.5 mM GSH and 0.015 unit of each enzyme.
# (§2) Purification and enzyme kinetic analysis of variant GST-π proteins. Functional consequences of the structural differences in the GST-π variant proteins was determined by the differential ability of the recombinant GST-π proteins to catalyze the conjugation of GSH with 1-chloro-2,4-dinitrobenzene (CDNB), a universal GST substrate. After expression in E. coli, the three GST-π proteins were purified by GSH-affinity chromatography on S-hexyl glutathione linked to epoxy-activated sepharose 6B, as previously described (Simons and Van der Jagt, 1981) and then used for enzyme kinetic analysis. Reaction mixtures (25° C.) in 100 mM potassium phosphate buffer, pH 8.3 contained 0.5-2.5 mM CDNB, 2.5 mM GSH and 0.015 unit of purified GST-π protein. The change in absorbance was monitored at 340 nm over two minutes and used to compute reaction rates. The rates of the spontaneous reactions of GSH with CDNB, determined with reaction mixtures in which the GST-π enzyme was replaced with buffer, were subtracted from the rates of the enzyme catalyzed reactions. The resulting reaction rates were used to generate double reciprocal plots from which Vmax and Km values were determined, using standard methodology (Segel, 1976).
# [2] = target: T2, human GST-π GSTP1a-1a, recombinant, encoded by hGSTP1*A (Ile104, Ala113; SEQ ID NO:3 and SEQ ID NO:4) (Homo sapiens, UniProt P09211); assay: as above; assay type: biochemical; conditions: 25° C., 0.1M K-phosphate buffer pH 8.3, 2.5 mM GSH
# T2 construct: made in house; host or cells: E. coli (XL1 Blue, pBK-CMV vector)
# T2 sequence (P09211 2-210 limits assumed): as the sequence (P09211 2-210 I105V) above, with V104I counted along it
# Experimental: as §1, §2
# [3] = target: T3, human GST-π variant GSTP1c-1c, recombinant, encoded by hGSTP1*C (Ile104→Val104, Ala113→Val113; SEQ ID NO:7 and SEQ ID NO:8) (Homo sapiens, UniProt P09211, A114V/I105V); assay: as above; assay type: biochemical; conditions: 25° C., 0.1M K-phosphate buffer pH 8.3, 2.5 mM GSH
# T3 construct: made in house; host or cells: E. coli (XL1 Blue, pBK-CMV vector)
# T3 sequence (P09211 2-210 I105V/A114V): as the sequence (P09211 2-210 I105V) above, with A113V counted along it
# Experimental: as §1, §2
# [4] = test system: GST-π gene expression in MGR-3 cells; assay: Retinoic acid effect on GST-π gene expression in tumor cells (Northern and Western blotting); assay type: cell-based; conditions: Homo sapiens
# Experimental: Retinoic acid effect on GST-π gene expression in tumor cells. To further determine the functionality of the RAREs in GST-π gene of MGR-3 cell line, we examined changes in GST-π gene transcripts in MGR-3 cells after exposure to RA. For this study, MGR-3 cells in exponential growth were treated with 1 μM all-trans RA. Another set cultures without RA treatment served as controls. After 24 and 48 hrs incubation at 37° C., total RNA was extracted and GST-π gene transcript levels were determined by Northern blotting, as described earlier. Alterations in GST-π protein content was determined in cells similarly treated with 1 μM all-trans RA. Cultures were harvested after 0, 12, 24 and 48 hrs post-RA exposure, cell extracts prepared from them, as previously described, and subjected to Western blotting with anti-GST-π antibodies.
# [5] = test system: RAR-β levels in MGR-3 cells; assay: Induction of RAR-β in nuclear extracts of RA-treated MGR-3 cells (immunoprecipitation); assay type: cell-based; conditions: Homo sapiens, 48-hr exposure, read-out: increase in RAR-β levels compared to untreated controls
# [6] = listed as 1-Chloro-2,4-dinitrobenzene
smiles,measurement,setting,value
"O=[N+]([O-])c1ccc(Cl)c([N+](=O)[O-])c1 [CDNB, 1-chloro-2,4-dinitrobenzene]",Vmax (CDNB),[1],1.7 ± 0.087 µmol/min/mg
same,Km,[1]; 0.5-2.5 mM CDNB,2700 ± 23 µM
same,Vmax (CDNB),[1]; [6],1.6 ± 0.087 µmol/min/mg
same,Vmax (CDNB),[2],4.7 ± 0.03 µmol/min/mg
same,Km,[2]; 0.5-2.5 mM CDNB,980 µM
same,Vmax (CDNB),[2]; [6],4.7 ± 0.03 µmol/min/mg
same,Vmax (CDNB),[3],1.4 ± 0.23 µmol/min/mg
same,Km,[3]; 0.5-2.5 mM CDNB,3100 ± 170 µM
same,Vmax (CDNB),[3]; [6],1.4 ± 0.23 µmol/min/mg
CC1=C(/C=C/C(C)=C/C=C/C(C)=C/C(=O)O)C(C)(C)CCC1 [all-trans retinoic acid],fold induction at 1 µM,"[4]; 1.0 μM, 48 hr, Northern analysis, read-out: increase in the level of GST-π gene transcripts relative to control levels (maximum)",3.4
same,fold induction at 1 µM,"[4]; 1 μM, 48 hrs, Western blot, read-out: increase in GST-π protein content relative to untreated controls",2.8
same,fold induction at 1 µM,[5],> 3
